“Also recorded” adds a separate entry of the source.
Legend:
[1] = cited from earlier work
[2] = at 78 weeks, cited from earlier work
[3] = system: C2C12 myoblasts; assay: C2C12 myoblast fusion in the presence of actin inhibitors; format: cell-based; conditions: C2C12 cells infected with GFP or Myomaker virus, Cytochalasin D 0.3 μM, lantrunculin B 0.1 μM
[4] = infantile-onset Pompe disease, compared to untreated historical control population

| Molecule | overall survival [1, 4] | ventilator-free survival [1, 4] | side effects ([1]; intravenous infusion) | increase in percent predicted forced vital capacity ([2]; P=0.006 vs placebo) [%] | increase in distance walked in six minutes ([2]; average, every other week for 18 months, baseline approximately 325 meters, P=0.03 vs placebo) | myoblast fusion [3] | myoblast fusion ([3]; listed as latrunculin B) |
| --- | --- | --- | --- | --- | --- | --- | --- |
| alglucosidase alfa [Myozyme] | clearly prolongs | clearly prolongs | fever, flushing, skin rash, increased heart rate and even shock | 1.2 | approximately 25 meters |  |  |
| C/C1=C/C(=O)O[C@@H]2C[C@@H](CC[C@H](C)/C=C\CC1)O[C@@](O)([C@@H]1CSC(=O)N1)C2 [lantrunculin B, latrunculin B] |  |  |  |  |  | completely blocked fusion | abolished |
| C=C1[C@@H](C)[C@H]2[C@H](Cc3ccccc3)NC(=O)[C@]23[C@H](OC(C)=O)/C=C/[C@@](C)(O)C(=O)[C@@H](C)C/C=C/[C@H]3[C@@H]1O [cytochalasin D] |  |  |  |  |  | completely blocked fusion; also recorded: abolished |  |

Source: US11471509B2, “Compositions and methods relating to myomaker-induced muscle cell fusion” (The Board of Regents of the University of Texas System, priority 2013, dated 2022)
